Results from ChEMBL document CHEMBL1130015, “Cardioselective antiischemic ATP-sensitive potassium channel (KATP) openers. 5. Identification of 4-(N-aryl)-substituted benzopyran derivatives with high selectivity” (J Med Chem, 1997).
pIC50: −log10 of the molar value.

What was measured:
Rattus norvegicus [1] = species: Rattus norvegicus; assay: Ratio of the EC25 value for time to contracture and IC50 value for vasorelaxant potency indicates selectivity in vitro for the ischemic myocardium.; assay type: functional
Rattus norvegicus [2] = species: Rattus norvegicus; assay: Antiischemic potency is determined by EC25 value for increase in time to the onset of contracture in globally ischemic isolated perfused rat hearts.; assay type: functional
Rattus norvegicus [3] = species: Rattus norvegicus; assay: Vasorelaxant potency determined by measurement of IC50 value for relaxation of rat aorta precontracted with methoxamine; assay type: functional
Rattus norvegicus [4] = species: Rattus norvegicus; assay: Percent increase in cardio protective activity at concentration of 10 uM; assay type: functional, Heart
[5] = Pharmacokinetic parameter Tmax following oral administration of 30 umol/kg; assay type: ADME, organism-based; conditions: in vivo
[6] = Apparent terminal elimination half life in rats; assay type: ADME, organism-based; conditions: rat, in vivo
[7] = Oral bioavailability in rats was determined in vivo; assay type: ADME, organism-based; conditions: rat, read-out: Bioavailabiility
[8] = Maximum plasma concentration following oral administration of 30 umol/kg; assay type: ADME, organism-based; set-up: dose 30 umol/kg, route oral

Compound	Ratio (Rattus norvegicus [1])	EC25 (Rattus norvegicus [2])	pIC50 (Rattus norvegicus [3])	Increase (Rattus norvegicus [4])	further results
CCOC(=O)CN(c1ccc(Cl)cc1)[C@H]1c2cc(C#N)ccc2OC(C)(C)[C@@H]1O	<0.22	6.5 µM	< 4.52	–	–
CC1(C)Oc2ccc(C#N)cc2[C@H](N(CCS(C)(=O)=O)c2ccccc2)[C@H]1O	–	–	4.57	0%	–
CCOC(=O)CCCN(c1ccccc1)[C@H]1c2cc(C#N)ccc2OC(C)(C)[C@@H]1O	–	5.7 µM	< 4.52	–	–
COCCN(c1ccccc1)[C@H]1c2cc(C#N)ccc2OC(C)(C)[C@@H]1O	–	–	< 4.52	15%	–
CC1(C)Oc2ccc(C#N)cc2[C@H](N(Cc2ccco2)c2ccccc2)[C@H]1O	0.27	3.2 µM	4.92	–	–
CC1(C)Oc2ccc(C#N)cc2[C@H](N(Cc2ncc[nH]2)c2ccc(F)cc2)[C@H]1O	0.11	3.3 µM	< 4.52	–	–
CCOC(=O)NN(c1ccccc1)[C@H]1c2cc(C#N)ccc2OC(C)(C)[C@@H]1O	1.95	4.3 µM	5.66	–	–
Cc1noc(CN(c2ccccc2)[C@H]2c3cc(C#N)ccc3OC(C)(C)[C@@H]2O)n1	<0.33	10 µM	< 4.52	–	–
Cc1cc(CN(c2ccccc2)[C@H]2c3cc(C#N)ccc3OC(C)(C)[C@@H]2O)on1	–	–	< 4.52	11%	–
CC1(C)Oc2ccc(C#N)cc2[C@H](N(CC#N)c2ccccc2)[C@H]1O	–	–	4.23	8%	–
CC1(C)Oc2ccc(C#N)cc2[C@H](Nc2ccccc2)[C@H]1O	3.9	3.9 µM	–	–	–
CCOC(=O)CN(c1nc(C)cs1)[C@H]1c2cc(C#N)ccc2OC(C)(C)[C@@H]1O	<0.09	7.8 µM	4.08	–	–
CCOC(=O)C(=O)N(c1ccc(F)cc1)[C@H]1c2cc(C#N)ccc2OC(C)(C)[C@@H]1O	–	–	4.37	0%	–
CCOC(=O)CN(c1ccccc1)[C@@H]1c2cc(C#N)ccc2OC(C)(C)[C@H]1O [listing 1 of 2 here]	–	–	< 4.52	5%	–
CC1(C)Oc2ccc(C#N)cc2[C@@H](N(Cc2ncc[nH]2)c2ccc(Cl)cc2)[C@@H]1O	–	–	< 4.52	14%	–
CCOC(=O)CN(c1ccccc1)[C@@H]1c2cc(C#N)ccc2OC(C)(C)[C@H]1O [listing 2 of 2 here]	<0.17	4.7 µM	< 4.52	–	–

Compound	Ratio (Rattus norvegicus [1])	EC25 (Rattus norvegicus [2])	pIC50 (Rattus norvegicus [3])	Increase (Rattus norvegicus [4])	further results
CC1(C)Oc2ccc(C#N)cc2[C@H](N(Cc2ncco2)c2ccccc2)[C@H]1O	<0.18	5.3 µM	< 4.52	–	–
CC1(C)Oc2ccc(C#N)cc2[C@H](N(CC(=O)O)c2ccccc2)[C@H]1O	–	–	< 4.00	0%	–
CCOC(=O)CN(c1ccc(F)cc1)[C@H]1c2cc(C#N)ccc2OC(C)(C)[C@@H]1O	<0.017	3.8 µM	< 4.52	–	–
CCCCOC(=O)CN(c1ccccc1)[C@H]1c2cc(C#N)ccc2OC(C)(C)[C@@H]1O	–	–	4.57	8%	–
CCOC(=O)CCN(c1ccccc1)[C@H]1c2cc(C#N)ccc2OC(C)(C)[C@@H]1O	–	–	4.27	26%	–
CCOC(=O)CN(c1nc2ccccc2o1)[C@H]1c2cc(C#N)ccc2OC(C)(C)[C@@H]1O	–	–	< 4.52	0%	–
COC(=O)c1cc2ccccc2n1[C@@H]1c2cc(C#N)ccc2OC(C)(C)[C@H]1O	0.25	8.1 µM	–	–	–
CCOC(=O)CN(c1ccccc1)[C@H]1c2cc(C#N)ccc2OC(C)(C)[C@@H]1O	<0.07	2.2 µM	< 4.52	38%	–
CC(=O)NCCN(c1ccccc1)[C@H]1c2cc(C#N)ccc2OC(C)(C)[C@@H]1O	–	–	< 4.52	5%	–
CCNC(=O)CN(c1ccccc1)[C@H]1c2cc(C#N)ccc2OC(C)(C)[C@@H]1O	–	–	< 4.52	21%	–
CC1(C)Oc2ccc(C#N)cc2[C@H](N(Cc2ncc[nH]2)c2ccccc2)[C@H]1O	<0.14	4.3 µM	< 4.52	–	–
CCOP(=O)(CN(c1ccc(F)cc1)[C@H]1c2cc(C#N)ccc2OC(C)(C)[C@@H]1O)OCC	0.104	4.9 µM	4.33	–	–
CC1(C)Oc2ccc(C#N)cc2[C@@H](/N=C(\NC#N)Nc2ccc(Cl)cc2)[C@@H]1O	1.4	2.5 µM	–	–	–
CC1(C)Oc2ccc(C#N)cc2[C@H](N(Cc2ncc[nH]2)c2ccc(Cl)cc2)[C@H]1O [BMS-191095]	<0.05	1.4 µM	< 4.52	–	Tmax [5]: 1.9 h; half-life [6]: 3 h; bioavailability [7]: 47%; Cmax [8]: 1300 nM
CC1(C)Oc2ccc(C#N)cc2[C@@H](N2CCCC2=O)[C@@H]1O [CROMAKALIM]	278	8.9 µM	–	–	–
